Reference: patent US12440542B1, “Kits for preparing and delivering purified corticotropin” (ANI Pharmaceuticals, Inc., priority 2022, dated 2025)

Test system: THP-1 Blue, Raw Blue, HEK-blue hTLR3, HEK-Blue hTLR4, HEK-Blue hNOD2
Assay: Activation of innate immune response in reporter cell lines covering TLR and NOD2 expression
Assay type: cell-based
Details: 5 cell lines; 3 PPQ lots; highest drug substance concentration tested 10 μg/mL
Protocol: Method development, qualification, and testing for activation of innate immune response was performed. The innate immune assays performed compared 3 PPQ lots. The work was conducted using 5 cell lines to cover TLR and NOD2 expression (THP-1 Blue, Raw Blue, HEK-blue hTLR3, HEK-Blue hTLR4, HEK-Blue hNOD2). […] The highest drug substance concentration tested was 10 μg/mL. A dose of the sterile preparation of purified corticotropin at 80 U is, equivalent to approximately 1 mg of drug substance per total body weight of subject.

## CCCc1nc2c(N)nc3ccccc3c2s1 [CL075]
  dose response in innate immune assays: robust dose responses

## CC(=O)N[C@@H]1[C@@H](O[C@H](C)C(=O)N[C@@H](C)C(=O)N[C@H](CCC(=O)O)C(N)=O)[C@H](O)[C@@H](CO)O[C@H]1O [MDP]
  dose response in innate immune assays: robust dose responses

## FSL-1
  dose response in innate immune assays: robust dose responses
